Measured values from US8475786B2, “Long-lasting absorption of flavonoids” (Nestec S.A., priority 2006, dated 2013).

Experiment: Plasma hesperetin levels after ingestion (FIG. 2)
Assay type: in vivo
Description: FIG. 2 is a graph comparing the plasma hesperetin levels depending on whether hesperetin-7-glucoside alone is ingested, whether hesperidin alone is ingested or whether a composition according to the present invention is consumed.
Without wishing to be bound by theory, it is thought that this is due to the presence of enzymes which are able to cleave the glucose moiety off, such that hesperetin is readily absorbable.
Without wishing to be bound by theory, it is thought that this is due to the presence of enzymes able to cleave the rutinose moiety of hesperidin only at a later stage of passage through the gastro-intestinal tract.
Thus, the compositions of the present invention advantageously provide a plasma level of hesperetin which is sustained over a longer period of time (cf. FIG. 2).
Indeed, after the ingestion of the compositions of the present invention, the hesperetin plasma levels are maintained for a sustained period of time (FIG. 2).

COc1ccc(C2CC(=O)c3c(O)cc(OC4OC(CO)C(O)C(O)C4O)cc3O2)cc1O (centres unmarked) [hesperetin-7-glucose, hesperetin-7-glucoside]
plasma level of hesperetin (in vivo): sharp peak shortly after ingestion

COc1ccc([C@@H]2CC(=O)c3c(O)cc(O[C@@H]4O[C@H](CO[C@@H]5O[C@@H](C)[C@H](O)[C@@H](O)[C@H]5O)[C@@H](O)[C@H](O)[C@H]4O)cc3O2)cc1O [hesperidin]
plasma level of hesperetin (after ingestion, FIG. 2): appears only later and to a smaller extent
